Experimental data published in ChEMBL document CHEMBL4000197, “Design, synthesis, biological evaluation, and molecular docking of chalcone derivatives as anti-inflammatory agents” (Bioorg Med Chem Lett, 2017).

Tested on: RAW264.7
Experiment: Cytotoxicity against mouse RAW264.7 cells at < 50 uM by MTT assay
Format: cell-based
Conditions: not given

Compound	Activity
COc1ccc(/C=C/C(=O)c2ccc(N3CCN(S(=O)(=O)c4ccc(Br)cc4)CC3)cc2)cc1OC	Non-Toxic

Tested on: RAW264.7
Experiment: Anti-inflammatory activity in mouse RAW264.7 cells assessed as inhibition of LPS-induced TNF-alpha production pretreated for 2 hrs followed by LPS challenge measured after 22 hrs by ELISA
Format: functional, cell-based
Conditions: not given

Compound	inhibition
COc1ccc(/C=C/C(=O)c2ccc(N3CCN(S(=O)(=O)c4ccc(Br)cc4)CC3)cc2)cc1OC	Dose-dependent effect

Tested on: Mus musculus
Experiment: Anti-inflammatory activity in para-xylene-induced Kunming mouse ear-swelling model assessed as inhibition of ear swelling at 40 mg/kg, ig measured after 1 hr relative to control
Format: functional
Conditions: po

Compound	inhibition in vivo at 40 mg/kg [%]
COc1ccc(/C=C/C(=O)c2ccc(N3CCN(c4ccc(Cl)c(Cl)c4)CC3)cc2)cc1OC	63.5
O=C(/C=C/c1ccccc1)c1ccc(N2CCN(S(=O)(=O)c3ccc(OC(F)(F)F)cc3)CC2)cc1	47.4
O=C(/C=C/c1ccccc1)c1ccc(N2CCN(c3ccc(Cl)c(Cl)c3)CC2)cc1	13.4
Cc1ccc(N2CCN(c3ccc(C(=O)/C=C/c4ccc(Cl)cc4)cc3)CC2)c(C)c1	25.7
O=C(/C=C/c1ccccc1)c1ccccc1 [CHALCONE]	21.7
Cc1cc(C)c(S(=O)(=O)N2CCN(c3ccc(C(=O)/C=C/c4ccccc4)cc3)CC2)c(C)c1	55.5
O=C(/C=C/c1ccc(Cl)cc1)c1ccc(N2CCN(S(=O)(=O)c3ccc(C(F)(F)F)cc3)CC2)cc1	59.6
O=C(/C=C/c1ccccc1)c1ccc(N2CCN(S(=O)(=O)c3ccc(Br)cc3)CC2)cc1	47.4
COc1ccc(N2CCN(c3ccc(C(=O)/C=C/c4ccc(Cl)cc4)cc3)CC2)cc1	55.1
O=C(/C=C/c1ccccc1)c1ccc(N2CCN(S(=O)(=O)c3ccc(C(F)(F)F)cc3)CC2)cc1	47.9
COc1ccccc1N1CCN(c2ccc(C(=O)/C=C/c3ccc(Cl)cc3)cc2)CC1	6.13
O=C(/C=C/c1ccccc1)c1ccc(N2CCN(S(=O)(=O)c3ccc4ccccc4c3)CC2)cc1	35
CCCCc1ccc(S(=O)(=O)N2CCN(c3ccc(C(=O)/C=C/c4ccccc4)cc3)CC2)cc1	24
O=C(/C=C/c1ccccc1)c1ccc(N2CCN(c3ccccc3Cl)CC2)cc1	4.71
O=C(/C=C/c1ccccc1)c1ccc(N2CCN(Cc3ccccc3)CC2)cc1	17.7
O=C(/C=C/c1ccccc1)c1ccc(N2CCN(c3cccc(Cl)c3)CC2)cc1	14.1
COc1cccc(N2CCN(c3ccc(C(=O)/C=C/c4ccccc4)cc3)CC2)c1	16
CC(C)c1cc(C(C)C)c(S(=O)(=O)N2CCN(c3ccc(C(=O)/C=C/c4ccccc4)cc3)CC2)c(C(C)C)c1	60.1

Compound	inhibition in vivo at 40 mg/kg [%]
O=C(/C=C/c1ccccc1)c1ccc(N2CCN(c3cccc(Cl)c3Cl)CC2)cc1	30.7
Cc1ccc(S(=O)(=O)N2CCN(c3ccc(C(=O)/C=C/c4ccccc4)cc3)CC2)cc1	30.8
COc1ccc(S(=O)(=O)N2CCN(c3ccc(C(=O)/C=C/c4ccc(OC)c(OC)c4)cc3)CC2)cc1	64
COc1ccc(/C=C/C(=O)c2ccc(N3CCN(c4ccc(C)cc4C)CC3)cc2)cc1OC	48.5
O=C(/C=C/c1ccccc1)c1ccc(N2CCN(c3ccccc3)CC2)cc1	3.71
Cc1ccc(N2CCN(c3ccc(C(=O)/C=C/c4ccccc4)cc3)CC2)c(C)c1	15
O=C(/C=C/c1ccccc1)c1ccc(N2CCN(S(=O)(=O)c3ccc(Cl)cc3)CC2)cc1	46.8
COc1ccc(S(=O)(=O)N2CCN(c3ccc(C(=O)/C=C/c4ccccc4)cc3)CC2)cc1	45.2
COc1ccc(S(=O)(=O)N2CCN(c3ccc(C(=O)/C=C/c4ccccc4)cc3)CC2)cc1OC	55.5
COc1ccc(/C=C/C(=O)c2ccc(N3CCN(S(=O)(=O)c4ccc(Br)cc4)CC3)cc2)cc1OC	75.5
O=C(/C=C/c1ccc(Cl)cc1)c1ccc(N2CCN(S(=O)(=O)c3ccc(Cl)cc3)CC2)cc1	56.6
Cc1ccc(N2CCN(c3ccc(C(=O)/C=C/c4ccccc4)cc3)CC2)cc1	2.85
O=C(/C=C/c1ccc(Cl)cc1)c1ccc(N2CCN(c3cccc(Cl)c3)CC2)cc1	5.85
COc1cccc(N2CCN(c3ccc(C(=O)/C=C/c4ccc(Cl)cc4)cc3)CC2)c1	2.28
O=C(/C=C/c1ccccc1)c1ccc(N2CCN(c3ccc([N+](=O)[O-])cc3)CC2)cc1	55.4
O=C(/C=C/c1ccccc1)c1ccc(N2CCN(c3ccccc3F)CC2)cc1	0.57
O=C(/C=C/c1ccccc1)c1ccc(N2CCN(c3cccc(C(F)(F)F)c3)CC2)cc1	25
O=C(/C=C/c1ccccc1)c1ccc(N2CCN(S(=O)(=O)c3ccccc3)CC2)cc1	30

Tested on: Mus musculus
Experiment: Anti-inflammatory activity in para-xylene-induced Kunming mouse ear-swelling model assessed as inhibition of ear swelling at 100 mg/kg, ig measured after 1 hr relative to control
Format: functional
Conditions: po

Compound	inhibition in vivo at 100 mg/kg [%]
CC(=O)Oc1ccccc1C(=O)O [ASPIRIN]	64.9

Tested on: Mus musculus
Experiment: Anti-inflammatory activity in para-xylene-induced Kunming mouse ear-swelling model assessed as inhibition of ear swelling at 5 mg/kg, ig measured after 1 hr relative to control
Format: functional
Conditions: po

Compound	inhibition in vivo at 5 mg/kg [%]
Cc1ccc(-c2cc(C(F)(F)F)nn2-c2ccc(S(N)(=O)=O)cc2)cc1 [CELECOXIB]	77

Tested on: RAW264.7
Experiment: Anti-inflammatory activity in mouse RAW264.7 cells assessed as inhibition of LPS-induced IL-6 production pretreated for 2 hrs followed by LPS challenge measured after 22 hrs by ELISA
Format: functional, cell-based
Conditions: not given

Compound	inhibition
COc1ccc(/C=C/C(=O)c2ccc(N3CCN(S(=O)(=O)c4ccc(Br)cc4)CC3)cc2)cc1OC	Dose-dependent effect
